Tests used:
[1] = molecular target: Metabotropic glutamate receptor 2 (Homo sapiens, UniProt Q14416)
[2] = molecular target: Metabotropic glutamate receptor 1 (Rattus norvegicus, UniProt P23385)
[3] = molecular target: T1, Retinoic acid receptor RXR-alpha (Rattus norvegicus, UniProt Q05343)
T1 sequence (Q05343 whole entry): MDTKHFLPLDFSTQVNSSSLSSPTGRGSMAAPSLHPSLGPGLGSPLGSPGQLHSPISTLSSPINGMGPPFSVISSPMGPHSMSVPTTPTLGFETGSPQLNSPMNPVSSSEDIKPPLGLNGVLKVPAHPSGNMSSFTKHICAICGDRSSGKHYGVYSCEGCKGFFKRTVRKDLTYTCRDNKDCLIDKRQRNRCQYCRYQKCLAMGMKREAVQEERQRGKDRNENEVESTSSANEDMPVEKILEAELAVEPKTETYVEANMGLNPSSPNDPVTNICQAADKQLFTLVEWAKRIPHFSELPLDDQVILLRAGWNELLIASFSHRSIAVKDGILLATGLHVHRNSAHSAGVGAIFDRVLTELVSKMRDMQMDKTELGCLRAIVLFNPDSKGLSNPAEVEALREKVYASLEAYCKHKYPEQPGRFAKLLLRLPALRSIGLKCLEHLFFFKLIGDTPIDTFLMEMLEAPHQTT

[4] = molecular target: T2, Alpha-2C adrenergic receptor (Rattus norvegicus, UniProt P22086)
T2 sequence (P22086 whole entry): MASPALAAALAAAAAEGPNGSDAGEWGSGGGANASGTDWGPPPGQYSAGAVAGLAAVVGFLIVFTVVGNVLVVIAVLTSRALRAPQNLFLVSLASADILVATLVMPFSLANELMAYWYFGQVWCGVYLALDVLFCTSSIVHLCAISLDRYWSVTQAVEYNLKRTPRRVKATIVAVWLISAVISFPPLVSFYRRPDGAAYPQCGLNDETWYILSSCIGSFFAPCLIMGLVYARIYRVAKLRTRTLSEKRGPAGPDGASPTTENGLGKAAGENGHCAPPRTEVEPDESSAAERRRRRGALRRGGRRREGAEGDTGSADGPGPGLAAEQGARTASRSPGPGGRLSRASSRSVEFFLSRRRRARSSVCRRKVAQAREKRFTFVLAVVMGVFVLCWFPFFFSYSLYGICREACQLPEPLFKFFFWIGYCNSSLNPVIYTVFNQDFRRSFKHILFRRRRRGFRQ

Metabotropic glutamate receptor 1, sequence (P23385 whole entry): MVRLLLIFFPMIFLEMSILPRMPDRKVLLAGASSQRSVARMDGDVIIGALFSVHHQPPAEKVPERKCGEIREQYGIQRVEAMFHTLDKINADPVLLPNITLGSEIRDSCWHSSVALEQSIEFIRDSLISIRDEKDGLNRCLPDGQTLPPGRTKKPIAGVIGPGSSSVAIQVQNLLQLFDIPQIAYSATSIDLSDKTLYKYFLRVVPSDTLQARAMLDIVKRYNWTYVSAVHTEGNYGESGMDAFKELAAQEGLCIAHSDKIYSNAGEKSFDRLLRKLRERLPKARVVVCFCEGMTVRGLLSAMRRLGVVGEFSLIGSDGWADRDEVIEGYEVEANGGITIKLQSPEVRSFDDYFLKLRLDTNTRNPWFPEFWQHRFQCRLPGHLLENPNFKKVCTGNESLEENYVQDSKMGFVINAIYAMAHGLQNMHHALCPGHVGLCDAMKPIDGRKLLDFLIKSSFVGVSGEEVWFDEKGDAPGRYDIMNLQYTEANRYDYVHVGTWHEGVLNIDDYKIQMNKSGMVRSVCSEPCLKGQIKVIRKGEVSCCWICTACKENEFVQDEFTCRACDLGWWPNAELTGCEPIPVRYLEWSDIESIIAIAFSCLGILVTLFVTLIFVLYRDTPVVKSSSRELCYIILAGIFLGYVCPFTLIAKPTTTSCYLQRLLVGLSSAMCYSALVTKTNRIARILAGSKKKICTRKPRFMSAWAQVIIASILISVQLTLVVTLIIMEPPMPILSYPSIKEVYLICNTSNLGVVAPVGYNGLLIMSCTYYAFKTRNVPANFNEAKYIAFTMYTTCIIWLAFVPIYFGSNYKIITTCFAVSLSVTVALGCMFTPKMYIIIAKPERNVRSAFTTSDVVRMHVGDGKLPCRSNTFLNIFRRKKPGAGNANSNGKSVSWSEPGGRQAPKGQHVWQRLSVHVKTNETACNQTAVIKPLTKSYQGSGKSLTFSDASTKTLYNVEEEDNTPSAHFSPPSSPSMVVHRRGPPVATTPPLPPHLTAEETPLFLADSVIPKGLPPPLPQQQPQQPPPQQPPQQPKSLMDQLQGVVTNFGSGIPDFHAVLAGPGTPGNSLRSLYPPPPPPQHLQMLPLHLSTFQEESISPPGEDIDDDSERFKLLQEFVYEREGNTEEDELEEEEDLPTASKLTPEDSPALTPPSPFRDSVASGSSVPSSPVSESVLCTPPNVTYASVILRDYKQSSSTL
Metabotropic glutamate receptor 2, sequence (Q14416 whole entry): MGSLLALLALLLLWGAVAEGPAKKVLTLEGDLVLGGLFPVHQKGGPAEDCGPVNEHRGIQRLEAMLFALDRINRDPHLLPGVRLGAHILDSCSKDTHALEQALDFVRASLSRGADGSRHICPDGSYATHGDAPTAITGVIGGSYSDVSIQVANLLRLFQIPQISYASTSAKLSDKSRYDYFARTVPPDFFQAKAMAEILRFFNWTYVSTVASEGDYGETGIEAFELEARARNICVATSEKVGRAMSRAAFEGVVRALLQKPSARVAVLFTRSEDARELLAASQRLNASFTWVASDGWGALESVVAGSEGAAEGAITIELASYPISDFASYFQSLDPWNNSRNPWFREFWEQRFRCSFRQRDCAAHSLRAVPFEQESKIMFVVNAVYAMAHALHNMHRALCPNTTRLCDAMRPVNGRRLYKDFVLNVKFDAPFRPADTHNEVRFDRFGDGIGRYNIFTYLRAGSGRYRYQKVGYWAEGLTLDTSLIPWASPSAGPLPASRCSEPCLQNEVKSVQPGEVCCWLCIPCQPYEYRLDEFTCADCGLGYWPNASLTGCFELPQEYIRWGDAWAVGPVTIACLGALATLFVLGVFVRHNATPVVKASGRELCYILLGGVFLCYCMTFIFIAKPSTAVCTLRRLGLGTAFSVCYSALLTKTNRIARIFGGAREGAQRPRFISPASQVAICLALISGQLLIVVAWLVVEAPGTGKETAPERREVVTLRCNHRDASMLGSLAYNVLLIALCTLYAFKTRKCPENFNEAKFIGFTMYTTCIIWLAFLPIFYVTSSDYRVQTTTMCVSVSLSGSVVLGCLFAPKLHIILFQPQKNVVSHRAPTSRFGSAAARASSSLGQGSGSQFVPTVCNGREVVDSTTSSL

NC1(C(=O)O)CCc2cc(C(=O)O)ccc21 (racemic) [AIDA]
Ki [1]: 1.1 µM

NC(C(=O)O)c1ccc(C(=O)O)cc1 (centres undefined) [4-(Amino-carboxy-methyl)-benzoic acid]
Ki [2]: 1.1 µM

CC12NC(Cc3ccccc31)c1ccccc12 (centres undefined) [CAS_180081]
Ki [3]: 7.6 µM

COc1cccc(OC)c1OCCNCC1CSc2ccccc2O1 (centres undefined) [NSC_2325]
Ki [4]: 7.6 µM

Source: BindingDB's records for doi:10.1016/s0024-3205(03)00272-8 (Merck Research Laboratories, 2003)
